Publication PMC10115881, “Disrupting the α-synuclein-ESCRT interaction with a peptide inhibitor mitigates neurodegeneration in preclinical models of Parkinson’s disease” (Nature Communications, 2023)

Key:
A53T a-syn = assay: Human a-syn immunoblot of cortical neuron lysates; assay type: cell-based; details: neuronal lysates
Protocol: Pregnant rats (E17) of the Sprague-Dawley strain were purchased from Envigo. Embryos were surgically removed from the mothers and cortices dissected in Hanks Balanced salt solution (Gibco). The meninges were removed, and cells were dissociated using a papain dissociation system (Worthington) before being resuspended in Neurobasal medium A supplemented with antibiotic-antimycotic solution (Gibco), L-glutamine substitute (GlutaMAX™; Gibco) and factor B27 (Gibco). Cells were plated on poly-D-lysine coated glass coverslips at a density of 5 × 10^5 cells/well, or on poly-D-lysine coated six-well cell culture plates at a density of 2 × 10^6 cells/well, and incubated at 37 °C in 5% CO2 with half media changes every 3 days. Cells were transduced with A53T a-syn or EV AAVs at 2 days post-isolation at a MOI of 3000. After 3 days, media containing AAV vectors were removed. […] Cells were fixed with 4% paraformaldehyde (PFA) for immunofluorescence staining or lysed for immunoblotting at 8 days post-isolation.
Infected neurons were scraped from 6-well dishes and lysed with RIPA buffer containing protease inhibitor cocktail (Roche). The Triton-X-100 soluble fraction was then separated from the insoluble pellet by centrifugation. Protein concentration was quantified using the DC protein assay (BioRad). […]

[1] = system: a-syn oligomers in iPSC-derived dopaminergic neurons; assay: a-syn oligomer (Syn-O2) fluorescence in iPSC-derived dopaminergic neurons; assay type: cell-based, human; details: A53T a-syn iPSC-derived dopaminergic neurons
Excerpt: Further, we used an antibody that has a high binding affinity for oligomeric a-syn and recognizes early soluble oligomers and late fibrils of a-syn (Syn-O2)[54]. This antibody detects these a-syn conformations in cerebrospinal fluid[55] and brain tissue[54] from PD patients. Levels of these a-syn conformations were increased in A53T a-syn neurons (Fig. 6G, H). Further, LAMP1 levels were reduced in A53T a-syn neurons (Fig. 6D, F).
A53T a-syn iCell Dopa neurons (catalog #R1109) and isogenic control iCell Dopa neurons (catalog #R1088) were purchased from Fujifilm Cellular Dynamics (Madison, WI, USA) and cultured as per the manufacturer’s instructions. […]
Confocal images of immunofluorescent staining were acquired with a Zeiss LSM880 confocal microscope equipped with 405, 488, 555, and 639 nm laser lines. All images were taken within the linear range at constant gain and pinhole settings at optimal resolution settings determined by the software. […]
Confocal images of primary cortical neurons, iPSC-derived dopaminergic neurons, and LAMP1 staining within the SN were processed using Imaris software (Oxford instruments). […] Mean pixel intensity per GFP^+ cell (for experiments using GFP-tagged peptides) or RFP^+ cell (for experiments using RFP-tagged peptides) was calculated for a-syn or LAMP1 signal using the software’s surfaces module. […]

Question: With DEEIERQLKALG [PDpep1.3] as the sequence, how does the “Effect on total A53T a-syn protein” value (A53T a-syn) read?
Answer: Its value is “corresponding reduction in total A53T a-syn protein levels”.

Question: What about the “Effect on oligomeric a-syn, iPSC neurons” value [1] of the same sequence?
Answer: The value was “returned levels of a-syn, including oligomeric a-syn, as well as LAMP1 levels to those of isogenic controls”.
